The results in this text go back to US20200062710A1, “Method For Producing 3-(Pyridyl-2-Amino)Propionitrile And Analogues Thereof” (Nipppon Kayaku Kabushiki Kaisha, priority 2016, published 2020).

The subject of data set [1] is Rice Brown Planthopper (Nilaparvata lugens). In words: Pest control test (stem and leaf soaking treatment) to rice brown planthopper. The format is in vivo. The note with it: 800 ppm, rice seedlings soaked, 25° C., five days after treatment. The protocol: Biological Test Example 2: Pest Control Test (Stem and Leaf Soaking Treatment) to Rice Brown Planthopper (Nilaparvata lugens)
Ten rice seedlings were soaked in 20 mL of the test compound solution diluted to 800 ppm and air-dried. After air drying, the rice seedings were hold in a glass cylinder (inner diameter 4.5 cm×14 cm) with urethane and stood on the plastic cup in which 40 mL of water was put. The […] larva of rice brown planthopper was released there, covered with medicine package, and kept in a constant temperature room at 25° C. In five days after treatment, life and death were observed and the mortality was calculated.

Data set [2] relates to Twospotted Spider Mite (Tetranychus urticae). Briefly: Pest control test (leaf soaking treatment) to twospotted spider mite. The format is in vivo. The settings on record: 800 ppm, bean leaf with eggs soaked about 30 seconds, 25° C., seven days after treatment. The protocol: Biological Test Example 1: Pest Control Test (Leaf Soaking Treatment) to Twospotted Spider Mite (Tetranychus urticae)
A bean leaf was cut to a diameter of 3.5 cm and placed on absorbent cotton moistened with water. Five adult females of the twospotted spider mite were released on the bean leaf and laid eggs for 24 hours, and then the adults were removed. This bean leaf was soaked for about 30 seconds in 20 mL of the dilution solution of the test compound diluted to 800 ppm. After air-drying, the bean leaf was put in a plastic cup together with absorbent cotton, covered, and kept in a constant temperature room at 25° C. In seven days after treatment, life and death were observed and the ovicidal rate was calculated.

For the molecule `N#CCCNc1ccccn1` [compound (1′), 3-(Pyridyl-2-amino)propionitrile], the “control effect (mortality)” value in data set [1] is listed as 50%. On to `N#CCCN(C=O)c1ccccn1` [compound (4′), N-(2-cyanoethyl)-N-(2-pyridyl)formamide], for which the “pest control effect (ovicidal rate)” value in data set [2] is 100%.
